Where a name gives a salt, the structure may show the parent alone.
Assays:
[1] = tested on: MeWo-LM2 cells, MeWo brain metastatic derivative cells; experiment: Systemic and brain metastasis after intracardiac injection into athymic nude mice; assay type: in vivo, human; details: diet 100 mg/kg
Procedure: After 8 hours, the transfection media was replaced with fresh media. After 48 hours, 1×10^5 cells were injected intravenously into NOD-SCID mice to assess lung metastatic colonization or through intracardiac injection into athymic nude mice to assess systemic metastasis. For cell invasion and endothelial recruitment in vitro assays, the cells were used 96 hours post-transfection.
Melanoma cells used for in vivo metastasis assays were transduced with a stably expressed retroviral construct encoding a luciferase reporter gene (Ponomarev et al., 2004), allowing us to monitor the in vivo progression of melanoma cells by bioluminescence imaging. The following numbers of melanoma cells, resuspended in 100 μL, of PBS, were injected intravenously via the tail-vein: 4×10^4 MeWo cells, 2.5×10^5 HT-144 cells, 2×10^5 SK-Mel-334.2 cells, 5×10^4B16F10 cells, and 1×10^5 YUMM cells. The MeWo, HT-144, and SK-Mel-334.2 cells were injected into 6-8 week-old sex-matched NOD scid mice, while the B16F10 and YUMM cells were injected into 6-8 week-old sex-matched C57BL/6 mice. […] To assess the effect of GW3965 treatment on brain metastasis, 1×10^5 MeWo brain-metastatic derivatives were injected intracardially into athymic nude mice. Immediately following injection, mice were randomly assigned to a control diet or GW3965-supplemented diet (100 mg/kg). […]

[2] = tested on: MeWo, SK-Mel-2, SK-Mel-334.2, SK-Mel-239 human melanoma cells; experiment: Subcutaneous human melanoma tumor growth in immunocompromised mice; assay type: in vivo
Excerpt: (§1) All data are represented as mean±SEM.
as §1

[3] = tested on: MeWo cells; experiment: Orthotopic metastasis assay after tumor excision; assay type: in vivo, human; details: chow 100 mg/kg for 1 month
Procedure: To determine the effect of GW3965 treatment on lung colonization by melanoma cells dissociated from an orthotopic site, 1×10^6 MeWo cells expressing a luciferase reporter were subcutaneously injected into both lower flanks of NOD Scid mice. Upon the formation of tumors measuring 300 mm^3 in volume, the tumors were excised and the mice were randomly assigned to a control diet or a GW3965-supplemented diet (100 mg/kg) treatment. One month after tumor excision, the lungs were extracted and lung colonization was measured by ex vivo bioluminescence imaging. To histologically confirm the extent of melanoma lung colonization, lungs were then fixed in 4% PFA overnight, paraffin-embedded, section into […] increments and stained for human vimentin (VP-V684, Vector Laboratories).

[4] = tested on: HUVEC; experiment: Endothelial migration and chemotaxis assay (cancer cell-free); assay type: cell-based, human; details: LRP8 receptor-dependent
Procedure: Serum-starved HUVEC's were pulsed with Cell Tracker Red CMTPX dye for 45 minutes and seeded into HTS Fluoroblock trans-well inserts at a concentration of 1×10^5 HUVEC's in 0.5 mL starvation media per each insert. The assay was allowed to proceed for 16-18 hours at 37° C., and the inserts were processed and analyzed as described above (See Matrigel Invasion Assay).
HUVEC's were serum-starved in 0.2% FBS EGM-2 media for 16 hours and labeled with Cell Tracker Red CMTPX dye for 45 minutes. Meanwhile, the indicated amounts (1-5 μg) of recombinant human ApoE3 or BSA were mixed with 250 μL of matrigel (356231, BD Biosciences) and allowed to solidify at the bottom of a 24-well plate for 30 min. 250 μL of HUVEC EGM-2 media containing 0.2% FBS was then added to each matrigel-coated well, and […] HTS Fluoroblock inserts were fitted into each well. 1×10^5 HUVEC's, resuspended in 0.5 mL of starvation media, were seeded into each insert and allowed to migrate along the matrigel gradient for 16-18 hours at 37° C. Upon completion of the assay, the inserts were mounted on slides and analyzed as described above (See Matrigel Invasion Assay).

[5] = tested on: endothelial cells recruited into matrigel plugs; experiment: In vivo matrigel plug assay; design: species or system mouse; details: VEGF 400 ng/mL + ApoE3 10 μg/mL
Procedure: 10 μg/mL recombinant human ApoE3 (4696, BioVision), 10 μg/mL BSA (A2153, Sigma Aldrich), or 400 ng/ml VEGF were mixed with matrigel (356231, BD Biosciences) as indicated. 400 μL of matrigel containing the indicated recombinant proteins were injected subcutaneously just above the ventral flank of immunocompromised NOD-SCID mice. Plugs were extracted on day 3 post-injection and fixed in 4% paraformaldehyde for 48 hours. Plugs were then paraffin-embedded and sectioned at 5-μm-thick increments. Plug cross-sectional sections were immunohistochemically stained using a primary antibody against the mouse endothelial antigen MECA-32 (Developmental Studies Hybridoma Bank, The University of Iowa, IA), detected by peroxidase-conjugated secondary antibody, and subsequently visualized by DAB oxidization. To quantify the extent of endothelial cell invasion into each matrigel plug, the number of endothelial cells was counted in 4-5 random fields for each plug, and the average number of endothelial cells per given plug area was calculated.

## O=C(O)Cc1cccc(OCCCN(Cc2cccc(C(F)(F)F)c2Cl)CC(c2ccccc2)c2ccccc2)c1 [GW3965 2, 3-[3-[N-(2-Chloro-3-trifluoromethylbenzyl)-(2,2-diphenylethyl)amino]propyloxy]phenylacetic acid hydrochloride]
[1]
  systemic dissemination and brain colonization: inhibited
[2]; diet 100 mg/kg, NOD Scid gamma mice
  suppression of growth of SK-Mel-239 vemurafenib-resistant line: 72%
[2]; immunocompromised mice, chow 100 mg/kg after tumor establishment
  overall survival time, MeWo and SK-Mel-334.2 xenografts: substantially prolonged
[2]; oral in diet
  tumor growth inhibition, MeWo: 70%
  tumor growth inhibition, SK-Mel-2: 49%
  tumor growth inhibition, SK-Mel-334.2: 73%
[2]; oral, diet 100 mg/kg, NOD Scid gamma mice
  growth of in vivo-derived DTIC-resistant MeWo tumors: strongly inhibited
[3]
  inhibition of lung colonization by disseminated melanoma cells post-tumor excision: 17 fold

## recombinant human ApoE3: recombinant human ApoE3 (4696, BioVision)
[4]
  endothelial migration in trans-well and gradient-based chemotactic assay: sufficient to inhibit
[5]
  suppression of VEGF-induced endothelial recruitment in vivo into subcutaneous matrigel plugs: greater than 40 fold

From patent publication US9399028B2, “Treatment of drug resistant cancer” (ROCKEFELLER UNIVERSITY (THE), priority 2012, dated 2016)
